Consider 3 molecules from patent publication EP3504969B1, “COMPOSITION FOR CONTROLLING FUNGAL INFECTION CAUSED BYNOSEMA CERANAE” (Universidad De Chile, priority 2015, dated 2017).

Experiment [1] relates to Nosema ceranae. The conditions noted are these: laboratory studies; result in words; cited from earlier work.
Experiment [2] relates to Nosema ceranae. In words: Confirmation efficacy test (Marchámalo): spore reduction in infected bees, days 5, 6 and 7. Type of experiment: in vivo, Apis mellifera. To be noted: day 7; CD14 daily dose 4 µg/bee; fumagillin 240 µg/bee; p = 0.0001. As for the experimental part: The AEselec in the previous paragraph (selected for its higher efficacy and higher yield) was assayed to confirm its activity against nosemosis using standardized tests in the Pathology Laboratory of the Centro Agrario de Marchámalo, Spain. Consequently, 3 groups of treatments were used, comprising 3 cages each and 35 bees/cage, born in laboratory, which, after a waiting period of 7 days, were infected with a load of 5 × 10^4 spores per bee. Later, a waiting period of 5 days passed to begin the application of the treatment in the ad libitum feeding. (Higes, 2007; Higes et al., 2010): • 1. Group without infection, negative control (Nl) • 2. Group infected with Nosema spp. spores, untreated positive control to which only 50% sucrose syrup with a 2% L-promoter (IST) shall be given, • 3. Group infected with Nosema spp. spores treated with peumo AE (ICT).
Spores. […] Both environmental variables were monitored through the installation of an environmental thermohygrometer. […]
Figure 6. Effectiveness of CD14 indicated as a percentage of spore reduction on days 5, 6 and 7 days of treatment at a daily dose of CD14, of 4µg/bee and 20 µg/bee of the majority of the evaluated monoterpenes. […]

For the molecule `Oc1ccc(C=Cc2cc(O)cc(O)c2)cc1` [resveratrol], the “reducing the spore load of Nosema ceranae” value in experiment [1] was “significant effects”.
Consider `Cc1ccc(C(C)C)c(O)c1` [thymol], for which, in experiment [1], the “reducing the spore load of Nosema ceranae” value is “significant effects”.
On to `CO[C@@H]1[C@H](OC(=O)/C=C/C=C/C=C/C=C/C(=O)O)CC[C@]2(CO2)[C@H]1[C@@]1(C)O[C@@H]1CC=C(C)C` [fumagillin], for which the “inhibited the growth of N. ceranae spores” value in experiment [2] was “about 80%”.
